Experimental data as given in PMC3969763 (Molecular biology reports, 2014).

Target: T1, β2-chimaerin (Homo sapiens, UniProt P52757)
T1 sequence (P52757 1-468): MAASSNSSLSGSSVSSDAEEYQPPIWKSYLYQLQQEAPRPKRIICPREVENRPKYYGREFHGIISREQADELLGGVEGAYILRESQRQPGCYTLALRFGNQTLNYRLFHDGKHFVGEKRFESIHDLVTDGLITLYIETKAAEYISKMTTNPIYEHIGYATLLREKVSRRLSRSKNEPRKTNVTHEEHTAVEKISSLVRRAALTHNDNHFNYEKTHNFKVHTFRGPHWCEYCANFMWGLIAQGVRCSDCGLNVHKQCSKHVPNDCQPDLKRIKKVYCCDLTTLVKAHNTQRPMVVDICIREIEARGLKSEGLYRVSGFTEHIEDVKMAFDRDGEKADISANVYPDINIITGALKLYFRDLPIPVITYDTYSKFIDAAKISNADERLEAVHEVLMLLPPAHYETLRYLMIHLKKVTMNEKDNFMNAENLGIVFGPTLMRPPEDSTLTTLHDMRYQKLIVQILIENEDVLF
Assay type: cell-based

`CCCCCCCCCCCCCC(=O)O[C@@H]1[C@@H](C)[C@@]2(O)[C@@H](C=C(CO)C[C@]3(O)C(=O)C(C)=C[C@@H]23)[C@@H]2C(C)(C)[C@]12OC(C)=O` [Phorbol 12-myristate 13-acetate] showed an EC50 of 1.202 ± 0.001 µM.
